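Grown in 96-well plates, cells were treated for 48 hours with each compound at five concentrations. Insufficient inhibition: endpoint recorded as highest concentration tested. GI50 is the concentration that inhibits growth by half. Definition used: TGI = concentration required for complete inhibition of growth.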
How the values were obtained:
Test in all cases: DTP human tumour cell line panel, 48 h
[1] = tested on: HCT-116 colon
[2] = tested on: SNB-19 CNS
[3] = tested on: SK-OV-3 ovarian
[4] = tested on: KM12 colon
[5] = tested on: UACC-62 melanoma
[6] = tested on: ACHN renal
[7] = tested on: MOLT-4 leukemia
[8] = tested on: SK-MEL-5 melanoma

Cc1cc(O)c(/C=N/C(=S)NCc2ccccc2)c(=O)o1
TGI [1]: > 100 µM
TGI [2]: > 100 µM
TGI [3]: > 100 µM
TGI [4]: > 100 µM
TGI [5]: > 100 µM
TGI [6]: > 100 µM
TGI [7]: > 100 µM
TGI [8]: > 100 µM

COc1ccc([C@H]2[C@@H](F)C(=O)N2c2cc(OC)c(OC)c(OC)c2)cc1F
GI50 [1]: 0.0325 µM
TGI [1]: > 100 µM
GI50 [2]: 0.302 µM
TGI [2]: > 100 µM
GI50 [3]: 3.45 µM
TGI [3]: > 100 µM
GI50 [4]: 0.0596 µM
TGI [4]: > 100 µM
GI50 [7]: 0.146 µM
TGI [7]: 93.4 µM
GI50 [8]: 0.0456 µM
TGI [8]: 0.35 µM

NC1(C(=O)OCc2ccccc2)CCCC1
TGI [1]: 41.8 µM
TGI [2]: 61.1 µM
TGI [3]: 71.1 µM
TGI [4]: > 100 µM
TGI [5]: 37 µM
TGI [6]: 34.1 µM
TGI [7]: 83 µM
TGI [8]: 37.4 µM

Cc1ccc(S(=O)(=O)Nc2ccccc2C(=O)c2ccc(C)c(C)c2)cc1
TGI [1]: > 100 µM
TGI [2]: > 100 µM
TGI [3]: > 100 µM
TGI [4]: > 100 µM
TGI [5]: > 100 µM
TGI [6]: > 100 µM
TGI [8]: > 100 µM

ClCc1cccc(Cn2cnc3ncnc(Cl)c32)c1
GI50 [1]: 1.78 µM
TGI [1]: 5.21 µM
GI50 [3]: 10.8 µM
TGI [3]: 25.5 µM
GI50 [4]: 1.85 µM
TGI [4]: 3.32 µM
GI50 [5]: 2.16 µM
TGI [5]: 5.39 µM
GI50 [6]: 1.88 µM
TGI [6]: 3.53 µM
GI50 [7]: 10.6 µM
TGI [7]: 29.4 µM
GI50 [8]: 4.65 µM
TGI [8]: 18.2 µM

COc1ccc(-c2nnc(COc3ccc(NC(=O)Nc4cc(C(F)(F)F)cc(C(F)(F)F)c4)cc3F)o2)cc1
GI50 [1]: 1.63 µM
TGI [1]: 3.98 µM
GI50 [2]: 3.33 µM
TGI [2]: 15.7 µM
GI50 [3]: 3.76 µM
TGI [3]: 12.7 µM
GI50 [4]: 1.51 µM
TGI [4]: 3.7 µM
GI50 [5]: 2.11 µM
TGI [5]: 7.13 µM
GI50 [6]: 2.54 µM
TGI [6]: 10.1 µM
GI50 [7]: 2.68 µM
TGI [7]: 14.1 µM
GI50 [8]: 1.73 µM
TGI [8]: 3.84 µM

COc1ccc(/C=C(/C#N)n2nnc3cccc(F)c32)cc1
GI50 [1]: 0.533 µM
TGI [1]: 3.02 µM
GI50 [2]: 2.38 µM
TGI [2]: 82.1 µM
GI50 [4]: 0.519 µM
TGI [4]: 4.54 µM
GI50 [5]: 0.516 µM
TGI [5]: 29.9 µM
GI50 [6]: 1.31 µM
TGI [6]: > 100 µM
GI50 [7]: 0.68 µM
TGI [7]: > 100 µM
GI50 [8]: 0.877 µM
TGI [8]: 5.46 µM

COc1c(Cl)c(=O)oc2ccc(Cl)cc12
TGI [1]: > 100 µM
TGI [2]: > 100 µM
TGI [3]: > 100 µM
TGI [4]: > 100 µM
TGI [5]: > 100 µM
TGI [6]: > 100 µM
TGI [7]: > 100 µM
TGI [8]: > 100 µM

COc1cc2c3c(n(C)c(=O)c2cc1OC)-c1cc2c(cc1/C3=C\CCCN)OCO2
GI50 [1]: 4.64 µM
TGI [1]: 25.2 µM
GI50 [2]: 18.7 µM
TGI [2]: > 100 µM
GI50 [3]: 41 µM
TGI [3]: > 100 µM
GI50 [4]: 11 µM
TGI [4]: 84.8 µM
GI50 [5]: 2.13 µM
TGI [5]: 13.7 µM
GI50 [6]: 2.09 µM
TGI [6]: 8.64 µM
GI50 [7]: 0.325 µM
TGI [7]: 3.64 µM
GI50 [8]: 2.99 µM
TGI [8]: 13.8 µM

NS(=O)(=O)c1cc(Br)c(N=Nc2ccc(O)c3ncccc23)c(Br)c1
TGI [1]: > 100 µM
TGI [2]: > 100 µM
TGI [3]: > 100 µM
TGI [4]: > 100 µM
TGI [5]: 68.8 µM
TGI [6]: 43.9 µM
TGI [7]: > 100 µM
TGI [8]: > 100 µM

CC[C@H](Nc1ncnc2nc[nH]c12)c1oc2ccccc2c(=O)c1-c1cccc(F)c1
GI50 [1]: 25.5 µM
TGI [1]: > 100 µM
GI50 [2]: 30.5 µM
TGI [2]: > 100 µM
GI50 [3]: 24.1 µM
TGI [3]: > 100 µM
GI50 [4]: 23.7 µM
TGI [4]: > 100 µM
GI50 [5]: 10.5 µM
TGI [5]: 69 µM
GI50 [6]: 21.6 µM
TGI [6]: > 100 µM
GI50 [7]: 13.1 µM
TGI [7]: 49.1 µM
GI50 [8]: 14 µM
TGI [8]: 28.2 µM

Cc1cccc(NC(=O)Cn2cnc3sc(C(=O)OC(C)C)c(C)c3c2=O)c1
GI50 [1]: 15.6 µM
TGI [1]: > 50 µM
GI50 [2]: 14.1 µM
TGI [2]: 38.6 µM
GI50 [3]: 26.8 µM
TGI [3]: > 50 µM
GI50 [4]: 30.3 µM
TGI [4]: > 50 µM
GI50 [5]: 8.78 µM
TGI [5]: 24.3 µM
GI50 [6]: 9.73 µM
TGI [6]: 26.6 µM
GI50 [7]: > 50 µM
TGI [7]: > 50 µM
GI50 [8]: 20.7 µM
TGI [8]: > 50 µM

CCN1CCN(c2nc(C)cc(N(CCNc3ccnc4cc(Cl)ccc34)Cc3ccc4c(c3)OCO4)n2)CC1
GI50 [1]: 1.38 µM
TGI [1]: 3.51 µM
GI50 [2]: 3 µM
TGI [2]: 10.2 µM
GI50 [3]: 2.99 µM
TGI [3]: 8.73 µM
GI50 [4]: 3.97 µM
TGI [4]: 15.2 µM
GI50 [5]: 1.85 µM
TGI [5]: 3.38 µM
GI50 [6]: 2.26 µM
TGI [6]: 5.26 µM
GI50 [7]: 2.1 µM
TGI [7]: 6.2 µM
GI50 [8]: 1.74 µM
TGI [8]: 3.17 µM

COc1cc(/C=C2\CN(S(=O)(=O)c3ccccc3)C/C(=C\c3cc(CN4CCCC4)c(O)c(OC)c3)C2=O)cc(CN2CCCC2)c1O
GI50 [2]: 1.49 µM
TGI [2]: 3.08 µM
GI50 [5]: 1.61 µM
TGI [5]: 3.24 µM
GI50 [6]: 1.99 µM
TGI [6]: 4.94 µM

O=C1NCC2(CCN(CCCC3(c4ccc(F)cc4)OCCO3)CC2)N1c1ccccc1
TGI [1]: > 100 µM
TGI [2]: > 100 µM
TGI [4]: > 100 µM
TGI [5]: > 100 µM
TGI [6]: > 100 µM
TGI [7]: > 100 µM
TGI [8]: > 100 µM

O=C(/C=C/c1ccc(Cl)cc1)c1ccc(Nc2ccnc3cc(Cl)ccc23)cc1
GI50 [2]: > 57.6 µM
TGI [2]: > 100 µM
GI50 [3]: > 100 µM
TGI [3]: > 100 µM
GI50 [4]: 4.61 µM
TGI [4]: 44.3 µM
GI50 [5]: > 100 µM
TGI [5]: > 100 µM
GI50 [6]: > 100 µM
TGI [6]: > 100 µM
GI50 [7]: 5.46 µM
TGI [7]: > 100 µM
TGI [8]: > 53.8 µM

COc1cc2c3c(n(C)c(=O)c2cc1OC)-c1cc2c(cc1/C3=C\CCN)OCO2
GI50 [1]: < 0.024 µM
TGI [1]: 0.348 µM
GI50 [2]: 0.394 µM
TGI [2]: 16.3 µM
GI50 [3]: 3.88 µM
TGI [3]: > 62.8 µM
GI50 [4]: 0.426 µM
TGI [4]: 2.11 µM
GI50 [5]: 0.185 µM
TGI [5]: 4.41 µM
GI50 [6]: 0.0476 µM
TGI [6]: 0.585 µM
GI50 [7]: < 0.01 µM

Cc1cc(-c2ccc3nc(C4CCOCC4)n(CCOC(F)(F)F)c3c2)cn(C)c1=O
TGI [1]: 14.8 µM
TGI [3]: 1.25 µM
GI50 [4]: 0.724 µM
TGI [4]: 11.4 µM
TGI [5]: 2.06 µM
GI50 [7]: 0.588 µM
TGI [7]: 17.5 µM
TGI [8]: 1.27 µM

COc1cc(OC)cc(-c2cc(=O)c3c(OC)c(OC)c(OC)c(OC)c3o2)c1
TGI [1]: > 100 µM
TGI [2]: > 100 µM
TGI [3]: 54.2 µM
TGI [5]: > 100 µM
TGI [6]: > 100 µM
TGI [7]: > 100 µM
TGI [8]: 84 µM

— PubChem BioAssay (NCI)
